The values that follow come from ChEMBL document CHEMBL4406819, “Targeting the subpocket in xanthine oxidase: Design, synthesis, and biological evaluation of 2-[4-alkoxy-3-(1H-tetrazol-1-yl) phenyl]-6-oxo-1,6-dihydropyrimidine-5-carboxylic acid derivatives” (Eur J Med Chem, 2019).

The test system of assay [1] is Rattus norvegicus. Description: Hypouricemic activity in Sprague-Dawley rat model of potassium oxonate-induced acute hyperuricemia assessed as decrease in serum uric acid level at 10 mg/kg, ig administered 1 hr before potassium oxonate challenge and measured after 3 hrs.
The test system of assay [2] is Rattus norvegicus. Description: Hypouricemic activity in Sprague-Dawley rat model of potassium oxonate-induced acute hyperuricemia assessed as decrease in serum uric acid level at 5 mg/kg, ig administered 1 hr before potassium oxonate challenge and measured after 3 hrs.

Activity calls are given as the source filed them. The rule behind the calls is not given here.

Consider `Oc1ncnc2[nH]ncc12`, for which the outcome with Rattus norvegicus [1] was Active.

For the compound `Cc1nc(-c2ccc(OCC(C)C)c(C#N)c2)sc1C(=O)O`, the result in the assay on Rattus norvegicus [2] was Active.
